# Assay results as given in patent US20180258180A1, “COMBINATION THERAPY INVOLVING ANTIBODIES AGAINST CLAUDIN 18.2 FOR TREATMENT OF CANCER” (Ganymed Pharmaceuticals AG, priority 2012, published 2018).
# How the values were obtained:
# KatoIII cells [1] = assay: Cell cycle analysis of KatoIII cells treated with cytostatic compounds; format: cell-based, human; conditions: for cell cycle phase in which cells are predominantly arrested/enriched: KatoIII cells, 96 hours; for cell cycle arrest phase: KatoIII cells pretreated for 4 days
# Protocol: (§1) KatoIII cells, a human gastric tumor cell line, was cultivated in RPMI 1640 medium (Invitrogen) containing 20% FCS (Perbio) and 2 mM Glutamax (Invitrogen) at 37° C. and 5% CO2, with or without cytostatic compounds. Epirubicin (Pfizer) was tested at a concentration of 10 or 100 ng/ml, 5-FU (Neofluor from NeoCorp AG) was tested at a concentration of 10 or 100 ng/ml, and oxaliplatin (Hospira) was tested at a concentration of 50 or 500 ng/ml. A combination of all 3 compounds (EOF; epirubicin 10 ng/ml, oxaliplatin 500 ng/ml, 5-FU 10 ng/ml) was also used. 8×10^5 KatoIII cells were cultivated for 96 hours without medium change or for 72 hours followed by 24 hours cultivation in standard medium to release cells from cell cycle arrest in a 6-well tissue culture plate at 37° C., 5% CO2. Cells were harvested with EDTA/trypsin, washed and analysed.
# Cell cycle stages were determined based on measurement of cellular DNA content. This allows one to discriminate between cells in the G1-, S- or G2-phase of the cell cycle. In the S-phase DNA duplication occurs whereas in the G2-phase cells grow and prepare for mitosis. Cell cycle analysis was done using the CycleTEST PLUS DNA Reagent Kit from BD Biosciences following the manufacturer's protocol. Flow cytometry acquisition and analysis were performed by using BD FACS CantoII (BD Biosciences) and FlowJo (Tree Star) software.
# (§2) KatoIII cells were pretreated for 4 days with Irinotecan or Docetaxel and analysed for CLDN18.2 expression and cell cycle arrest.
# CLDN18.2 = assay: Extracellular detection of CLDN18.2 on treated KatoIII cells by flow cytometry; format: cell-based, human; conditions: 96 hours, FIG. 1
# Protocol: as §1
# As secondary reagent goat-anti-huIgG-APC from Dianova was used.
# [2] = target: Claudin 18 splice variant 2 (CLDN18.2), human (human)
# KatoIII cells [3] = assay: IMAB362 induced ADCC / viability of pretreated KatoIII cells (luciferase); format: cell-based, human; conditions: KatoIII pretreated for 3 days; for level of viable cells compared to medium cultivated target cells: Irinotecan 1000 ng/ml, Docetaxel 5 ng/ml, Cisplatin 2000 ng/ml
# Protocol: Peripheral blood mononuclear cells (PBMCs) including NK cells, monocytes, mononuclear cells or other effector cells from healthy human donors were purified by Ficoll Hypaque density centrifugation. Washed effector cells were seeded in X-Vivo medium. KatoII cells which express CLDN18.2 endogenously and are of gastric origin were used as target cells in this setting. Target cells stably expressed luciferase, lucifer yellow, which is oxidized by viable cells only.
# KatoIII cells [4] = assay: Cell growth of KatoIII cells pretreated with Irinotecan or Docetaxel; format: cell-based, human; conditions: KatoIII cells pretreated for 4 days
# Description: as §2
# claudin18.2 = claudin18.2 expression in pretreated KatoIII cells; format: cell-based, human; conditions: KatoIII pretreated for 3 days; Irinotecan 1000 ng/ml, Docetaxel 5 ng/ml, Cisplatin 2000 ng/ml
# PBMCs = assay: Expansion of PBMC cultures with ZA/IL-2; format: cell-based, human; conditions: 14 days, 300 U/ml IL-2
# Protocol: PBMCs were harvested from healthy human donors and cultures were treated with a single dose of ZA. […] FIG. 8a. […] FIG. 8b. Increase in cell numbers was determined by counting living cells on day 6, 8, 11 and 14.
# Vγ9Vδ2 T cells = assay: Enrichment of Vγ9Vδ2 T cells co-cultured with monocytes ± ZA; format: cell-based, human; conditions: co-culture 14 days, ±1 μM ZA
# Protocol: The enrichment of Vγ9Vδ2 T cells in the co-cultures after 14 days was determined by multicolor FACS, whereas the expansion of the culture was considered in the calculation. The enrichment factor of Vγ9Vδ2 T cells cultured with monocytes in a 1:4 ratio was set to 100% for each experiment. […] This effect was clearly ZA-dependent; cf. FIG. 11a.
# NUGC-4 = format: cell-based, human
# Protocol: (§3) Furthermore, human stomach cancer cells (NUGC-4-luciferase) and murine stomach cancer cells (CLS103-calcein stained) were pretreated with or w/o 5 μM ZA for 2 days. Human Vγ9Vδ2 T cells were MACS purified (day 14) and co-cultured with the cancer cells for 24 h. Cytotoxicity of Vγ9V52 T cells towards non-treated and ZA-treated target cells was determined by measuring remaining luciferase activity or calcein fluorescence; cf. FIG. 11b. Target cells (NUGC-4 and CLS103) were pretreated with or w/o 5 μM ZA for 2 days and subsequently incubated for 4 h with mitomycin c ([…]) to stop proliferation. MACS purified human 14d old resting Vγ9V62 T cells and ^3H-thymidine were added to the target cells and co-cultures were incubated for 48 h at 37° C. Proliferation was determined by measuring ^3H thymidine incorporation in the DNA using a MicroBeta scintillation counter. Proliferation of target cells not treated with ZA and w/o Vγ9Vδ2 T cells was set to 100%; cf. FIG. 11c.
# CLS103 = test system: CLS103
# Protocol: as §3
# NUGC-4 xenografts = assay: Biodistribution of Dyelight 680-labeled antibodies in NUGC-4 xenografted nude mice; conditions: negative control, NUGC-4 negative for CD20
# [5] = test system: HEK293~CLDN18.2 transfectants; assay: Early treatment of HEK293~CLDN18.2 tumor xenografts; format: in vivo, nude mice; conditions: isotype control, twice per week for 6 weeks
# Description: Moreover, advanced tumor treatment experiments were initiated up to 9 days after tumor cell inoculation when tumors had reached volumes of about 60-120 mm^3.
# Nude mice were subcutaneously inoculated with 1×10^7 HEK293˜CLDN18.2 transfectants. Treatment of 10 mice per group started 3 days after tumor inoculation. […] Not only time to death was prolonged, but 4 of 10 mice survived the entire observation period of 210 days.
molecule,measurement,setting,value
"O=c1[nH]cc(F)c(=O)[nH]1 [5-FU, 5-fluoro-1H-pyrimidine-2,4-dione]",cell cycle phase in which cells are predominantly arrested/enriched,KatoIII cells [1],S-phase
same,CLDN18.2-expression,CLDN18.2,stabilize
IMAB362 (antibody),"EC50 (read off the curve), ADCC on KatoIII cells pretreated 3 days with Irinotecan (Irino imab362)",[2],1 µg/mL
same,"EC50 (read off the curve), ADCC on medium-cultivated KatoIII cells (Med imab362)",[2],2 µg/mL
"CCc1c2c(nc3ccc(OC(=O)N4CCC(N5CCCCC5)CC4)cc13)-c1cc3c(c(=O)n1C2)COC(=O)[C@]3(O)CC [Irinotecan, (S)-4,11-diethyl-3,4,12,14-tetrahydro-4-hydroxy-3,14-dioxo1H-pyrano[3′,4′:6,7]-indolizino[1,2-b]quinolin-9-yl-[1,4′bipiperidine]-1′-carboxylate]",potency of IMAB362 to induce ADCC after pretreatment of target cells,KatoIII cells [3],augmented
same,level of viable cells compared to medium cultivated target cells,KatoIII cells [3],lower level of viable cells
same,cell cycle arrest phase,KatoIII cells [1],S/G2-phase
same,cell growth,KatoIII cells [4],dose dependent inhibition
same,claudin18.2 expression compared to medium cultivated cells,claudin18.2,increased
"N.N.[Cl][Pt][Cl] [Cisplatin, cis-diamminedichloroplatinum(II)]",potency of IMAB362 to induce ADCC after pretreatment of target cells,KatoIII cells [3],augmented
same,level of viable cells compared to medium cultivated target cells,KatoIII cells [3],lower level of viable cells
same,claudin18.2 expression compared to medium cultivated cells,claudin18.2,increased
"CC(=O)O[C@@]12CO[C@@H]1C[C@H](O)[C@@]1(C)C(=O)[C@H](O)C3=C(C)[C@@H](OC(=O)[C@H](O)[C@@H](NC(=O)OC(C)(C)C)c4ccccc4)C[C@@](O)([C@@H](OC(=O)c4ccccc4)[C@H]21)C3(C)C [Docetaxel, docetaxel]",potency of IMAB362 to induce ADCC after pretreatment of target cells,KatoIII cells [3],augmented
same,level of viable cells compared to medium cultivated target cells,KatoIII cells [3],lower level of viable cells
same,cell cycle arrest phase,KatoIII cells [1],G2-phase
same,cell growth,KatoIII cells [4],dose dependent inhibition
same,claudin18.2 expression compared to medium cultivated cells,claudin18.2,increased
COc1cccc2c1C(=O)c1c(O)c3c(c(O)c1C2=O)C[C@@](O)(C(=O)CO)C[C@@H]3O[C@H]1C[C@H](N)[C@@H](O)[C@H](C)O1 [Epirubicin],cell cycle phase in which cells are predominantly arrested/enriched,KatoIII cells [1],G2-phase
same,CLDN18.2-expression,CLDN18.2,stabilize
"O=C1[O][Pt]2([NH][C@@H]3CCCC[C@H]3[NH]2)[O]C1=O [Oxaliplatin, [(1R,2R)-cyclohexane-1,2-diamine](ethanedioato-O,O′)platinum(II)]",cell cycle phase in which cells are predominantly arrested/enriched,KatoIII cells [1],G1- and G2-phases
"O=P(O)(O)C(O)(Cn1ccnc1)P(=O)(O)O [ZA, [1-hydroxy-2-(1H-imidazol-1-yl)ethane-1,1-diyl]bis(phosphonic acid)]",expansion of cells in medium without ZA compared to with ZA (lower),PBMCs,about 2 fold
same,"enrichment of Vγ9Vδ2 T cells with increase of monocytes, ZA-dependent",Vγ9Vδ2 T cells,more than 10 fold
same,activation of Vγ9Vδ2 T cell cytotoxicity by ZA-pulsed cancer cells,NUGC-4,5-10 fold
same,activation of Vγ9Vδ2 T cell proliferation by ZA-pulsed cancer cells,"NUGC-4; 5 μM ZA for 2 days, co-culture 48 h, 3H-thymidine",1.4-1.8 fold
same,activation of Vγ9Vδ2 T cells (cytotoxicity and proliferation) by ZA-pulsed cancer cells,CLS103,failed to elicit these effects
rituximab: Dyelight 680-labeled negative control antibody (NUGC-4 negative for CD20) [reference compound],signal of labeled antibody in NUGC-4 engrafted mice,NUGC-4 xenografts,No signal is detected
infliximab: isotype control antibody [reference compound],time within which all mice died,[5],70 to 80 days
